Measurements from ChEMBL document CHEMBL4814030, “Optimization of ether and aniline based inhibitors of lactate dehydrogenase” (Bioorg Med Chem Lett, 2021).
Values after ≈ are worked out from the molar mass of the structure shown.

How the values were obtained:
[1] = Metabolic stability in rat microsomes assessed as half life; type: ADME, Microsome
[2] = system: MIA PaCa-2; assay: Cytotoxicity against human MIA PaCa-2 cells assessed as reduction in cell viability incubated for 48 hrs by cell titer glo assay; type: functional, cell-based; conditions: MIA PaCa-2, 48 h
[3] = Kinetic solubility of compound; type: physicochemical; conditions: read-out: Kinetic_solubility
[4] = molecular target: T1, L-lactate dehydrogenase A chain (Homo sapiens, UniProt P00338); assay: Inhibition of LDHA in human A673 cells assessed as reduction in lactate production incubated for 2 hrs by fluorescence based assay; type: cell-based
[5] = molecular target: T1, L-lactate dehydrogenase A chain; assay: Inhibition of LDHA in human MIA PaCa2 cells assessed as reduction in lactate production incubated for 2 hrs by fluorescence based assay; type: cell-based, MIA PaCa-2
[6] = Permeability of compound by PAMPA; type: ADME; conditions: read-out: permeability
[7] = molecular target: T1, L-lactate dehydrogenase A chain; assay: Inhibition of recombinant human LDHA using sodium pyruvate as substrate preincubated for 5 mins followed by diaphorase/resazurin addition and measured after 20 mins by fluorescence based assay
[8] = system: A673; assay: Cytotoxicity against human A673 cells assessed as reduction in cell viability incubated for 48 hrs by cell titer glo assay; type: functional, cell-based; conditions: A673, 48 h
[9] = molecular target: T1, L-lactate dehydrogenase A chain; assay: Binding affinity to LDHA (unknown origin) by SPR analysis

| SMILES | t1/2 [1] [min] | IC50 [2] [nM] | solubility kinetic [3] [µg/mL] | IC50 [4] [nM] | IC50 [5] [nM] | Papp [6] [×10⁻⁶ cm/s] | IC50 [7] [nM] | IC50 [8] [nM] | Kd [9] [nM] |
| --- | --- | --- | --- | --- | --- | --- | --- | --- | --- |
| NS(=O)(=O)c1ccc(Cc2c(-c3ccc(F)c(OCc4ccc(C(F)(F)F)o4)c3)nn(-c3nc(C(=O)O)cs3)c2CC2CC2)cc1F | > 30 | 2100 | 53.2 (≈ 76.6 µM) | 1100 | 1000 | 12 | 23 | 440 | 0.001 |
| NS(=O)(=O)c1ccc(Cc2c(-c3ccc(F)c(NC(=O)c4ccccc4)c3)nn(-c3nc(C(=O)O)cs3)c2CC2CC2)cc1F | > 30 | 17400 | > 98 | 2300 | 5000 | 6.4 | 7 | 5300 |  |
| NS(=O)(=O)c1ccc(Cc2c(-c3ccc(F)c(OCC4CCCO4)c3)nn(-c3nc(C(=O)O)cs3)c2CC2CC2)cc1F (stereo not given) |  |  |  |  | 2900 |  | 5 |  |  |
| NS(=O)(=O)c1ccc(Cc2c(-c3ccc(F)c(N4CCCC4=O)c3)nn(-c3nc(C(=O)O)cs3)c2CC2CC2)cc1F |  |  |  |  | 6000 |  | 111 |  |  |
| NS(=O)(=O)c1ccc(Cc2c(-c3ccc(F)c(OC4CC4)c3)nn(-c3nc(C(=O)O)cs3)c2CC2CC2)cc1F | > 30 | 5700 | > 87 | 1900 | 2100 | 5.8 | 8 | 1500 | 0.004 |
| NS(=O)(=O)c1ccc(Cc2cn(-c3nc(C(=O)O)cs3)nc2-c2cccc(OCc3ccccn3)c2)cc1 |  |  |  |  | > 57000 |  | 23 |  |  |
| NS(=O)(=O)c1ccc(Cc2cn(-c3nc(C(=O)O)cs3)nc2-c2cccc(OCc3cccnc3)c2)cc1 |  |  |  |  | > 57000 |  | 77 |  |  |
| NS(=O)(=O)c1ccc(Cc2c(-c3cccc(N4CCC(F)(F)CC4)c3)nn(-c3nc(C(=O)O)cs3)c2CC2CC2)cc1F |  |  |  |  | 8700 |  | 17 |  |  |
| NS(=O)(=O)c1ccc(Cc2cn(-c3nc(C(=O)O)cs3)nc2-c2cccc(OCC3CCCC3)c2)cc1 |  |  |  |  | 7700 |  | 29 |  |  |
| COc1cc(-c2nn(-c3nc(C(=O)O)cs3)c(CC3CC3)c2Cc2ccc(S(N)(=O)=O)cc2)ccc1F |  |  |  |  | 5700 |  | 8 |  |  |
| NS(=O)(=O)c1ccc(Cc2c(-c3cccc(N4CCC(F)(F)C4)c3)nn(-c3nc(C(=O)O)cs3)c2CC2CC2)cc1F |  |  |  |  | 4200 |  | 15 |  |  |
| COc1cccc(COc2cccc(-c3nn(-c4nc(C(=O)O)cs4)cc3Cc3ccc(S(N)(=O)=O)cc3)c2)c1 |  |  |  |  | 5400 |  | 21 |  |  |
| NS(=O)(=O)c1ccc(Cc2c(-c3cccc(Oc4cccc(F)c4)c3)nn(-c3nc(C(=O)O)cs3)c2CC2CC2)cc1 |  |  |  |  | 19000 |  | 1060 |  |  |
| NS(=O)(=O)c1ccc(Cc2c(-c3cccc(OC4CCCC4)c3)nn(-c3nc(C(=O)O)cs3)c2CC2CC2)cc1F |  |  |  |  | 710 |  | 13 |  |  |
| NS(=O)(=O)c1ccc(Cc2c(-c3cccc(N4CCCC(C(F)(F)F)C4)c3)nn(-c3nc(C(=O)O)cs3)c2CC2CC2)cc1F (stereo not given) |  |  |  |  | 6900 |  | 59 |  |  |
| NS(=O)(=O)c1ccc(Cc2c(-c3ccc(F)c(Oc4cccc(F)c4)c3)nn(-c3nc(C(=O)O)cs3)c2CC2CC2)cc1F |  |  |  |  | 970 |  | 27 |  |  |
| NS(=O)(=O)c1ccc(Cc2c(-c3ccc(F)c(OCc4cccc(F)c4)c3)nn(-c3nc(C(=O)O)cs3)c2CC2CC2)cc1F | < 1 | 2100 | 10.7 (≈ 16.3 µM) | 730 | 670 | 2.9 | 22 | 550 | 0.91 |
| NS(=O)(=O)c1ccc(Cc2c(-c3cccc(N4CCCC(F)(F)C4)c3)nn(-c3nc(C(=O)O)cs3)c2CC2CC2)cc1F |  |  |  |  | 8600 |  | 18 |  |  |
| Cc1ccc(COc2cccc(-c3nn(-c4nc(C(=O)O)cs4)cc3Cc3ccc(S(N)(=O)=O)cc3)c2)cc1 |  |  |  |  | 7500 |  | 39 |  |  |

| SMILES | t1/2 [1] [min] | IC50 [2] [nM] | solubility kinetic [3] [µg/mL] | IC50 [4] [nM] | IC50 [5] [nM] | Papp [6] [×10⁻⁶ cm/s] | IC50 [7] [nM] | IC50 [8] [nM] | Kd [9] [nM] |
| --- | --- | --- | --- | --- | --- | --- | --- | --- | --- |
| NS(=O)(=O)c1ccc(Cc2cn(-c3nc(C(=O)O)cs3)nc2-c2cccc(OCc3cccc(F)c3)c2)cc1 |  |  |  |  | 6100 |  | 26 |  |  |
| NS(=O)(=O)c1ccc(Cc2c(-c3ccc(F)c(C(=O)N4CCCC4)c3)nn(-c3nc(C(=O)O)cs3)c2CC2CC2)cc1F | > 30 | 6600 | > 93 | 16600 | 19900 | 5.7 | 154 | > 50000 |  |
| NS(=O)(=O)c1ccc(Cc2c(-c3cccc(Nc4ccccc4)c3)nn(-c3nc(C(=O)O)cs3)c2CC2CC2)cc1 | 6 | 21200 | 49.3 (≈ 84.2 µM) | 3100 | 6700 | 4.4 | 314 | 34500 | 1.5 |
| NS(=O)(=O)c1ccc(Cc2c(-c3ccc(F)c(C(=O)N4CCOCC4)c3)nn(-c3nc(C(=O)O)cs3)c2CC2CC2)cc1F |  |  |  |  | 3200 |  | 22 |  |  |
| NS(=O)(=O)c1ccc(Cc2c(-c3ccc(F)c(OCC4CC4(F)F)c3)nn(-c3nc(C(=O)O)cs3)c2CC2CC2)cc1F (stereo not given) | > 30 | 2400 | 76.1 (≈ 120 µM) | 1100 | 1400 | 4.9 | 5 | 900 | 0.008 |
| NS(=O)(=O)c1ccc(Cc2c(-c3ccc(F)c(Oc4ccc(F)cc4)c3)nn(-c3nc(C(=O)O)cs3)c2CC2CC2)cc1F |  |  |  |  | 1700 |  | 41 |  |  |
| CC(C)N1CC2(CN(c3cc(-c4nn(-c5nc(C(=O)O)cs5)c(CC5CC5)c4Cc4ccc(S(N)(=O)=O)c(F)c4)ccc3F)C2)C1 |  |  |  |  | 24100 |  | 37 |  |  |
| NS(=O)(=O)c1ccc(Cc2c(-c3cccc(N4CCOCC4)c3)nn(-c3nc(C(=O)O)cs3)c2CC2CC2)cc1F | > 30 | 18700 | > 88 | 9400 | 23400 | 1.6 | 27 | 20400 | 0.44 |
| NS(=O)(=O)c1ccc(Cc2c(-c3ccc(F)c(C(=O)NCc4ccccc4)c3)nn(-c3nc(C(=O)O)cs3)c2CC2CC2)cc1F | 14.9 | 15700 | 81 (≈ 122 µM) | 4700 | 9100 | 8.7 | 8 | 5100 |  |
| NS(=O)(=O)c1ccc(Cc2cn(-c3nc(C(=O)O)cs3)nc2-c2cccc(Oc3ccccc3)c2)cc1 |  |  |  |  | 9400 |  | 17 |  |  |
| CC(C)(C)NC(=O)c1cc(-c2nn(-c3nc(C(=O)O)cs3)c(CC3CC3)c2Cc2ccc(S(N)(=O)=O)c(F)c2)ccc1F |  |  |  |  | 11700 |  | 6 |  |  |
| NS(=O)(=O)c1ccc(Cc2c(-c3ccc(F)c(Oc4ccccc4)c3)nn(-c3nc(C(=O)O)cs3)c2CC2CC2)cc1 |  |  |  |  | 1700 |  | 34 |  |  |
| NS(=O)(=O)c1ccc(Cc2c(-c3cccc(OCc4ccccc4)c3)nn(-c3nc(C(=O)O)cs3)c2CC2CC2)cc1F | 2.8 | 1400 | 72.4 (≈ 117 µM) | 590 | 690 | 1.1 | 19 | 420 | 0.016 |
| NS(=O)(=O)c1ccc(Cc2c(-c3ccc(F)c(OCC4CCOC4)c3)nn(-c3nc(C(=O)O)cs3)c2CC2CC2)cc1F (stereo not given) |  |  |  |  | 3000 |  | 5 |  |  |
| Cc1ccc(Oc2cc(-c3nn(-c4nc(C(=O)O)cs4)c(CC4CC4)c3Cc3ccc(S(N)(=O)=O)c(F)c3)ccc2F)cc1 | 6.2 | 2100 | 24 (≈ 37.7 µM) | 550 | 870 | 13 | 26 | 550 | 1.1 |
| NS(=O)(=O)c1ccc(Cc2c(-c3cccc(N4CCC(C(F)(F)F)CC4)c3)nn(-c3nc(C(=O)O)cs3)c2CC2CC2)cc1F |  |  |  |  | 2400 |  | 47 |  |  |
| COc1cccc(-c2nn(-c3nc(C(=O)O)cs3)cc2Cc2ccc(S(N)(=O)=O)cc2)c1 |  |  |  |  | > 57000 |  | 90 |  |  |
| NS(=O)(=O)c1ccc(Cc2c(-c3ccc(F)c(OCc4ccc(F)cc4)c3)nn(-c3nc(C(=O)O)cs3)c2CC2CC2)cc1 |  |  |  |  | 3300 |  | 84 |  |  |
| NS(=O)(=O)c1ccc(Cc2c(-c3ccc(F)c(Oc4ccc(C(F)(F)F)cc4)c3)nn(-c3nc(C(=O)O)cs3)c2CC2CC2)cc1F |  |  |  |  | 1100 |  | 71 |  |  |
